# Experimental data taken from patent US20130231360A1, “Beta-Carbolines as Inhibitors of Haspin and DYRK Kinases” (THE BRIGHAM AND WOMEN S HOSPITAL, INC., priority 2010, published 2013).
# pIC50: −log10 of the molar value.
# Target: T1, Haspin kinase (Homo sapiens, UniProt Q8TF76)
# T1 construct: This full-length Haspin gene was cloned into the pMALc2E vector; made in house; host or cells: E. coli Rosetta 2(DE3)pLysS
# T1 sequence (Q8TF76 1-798): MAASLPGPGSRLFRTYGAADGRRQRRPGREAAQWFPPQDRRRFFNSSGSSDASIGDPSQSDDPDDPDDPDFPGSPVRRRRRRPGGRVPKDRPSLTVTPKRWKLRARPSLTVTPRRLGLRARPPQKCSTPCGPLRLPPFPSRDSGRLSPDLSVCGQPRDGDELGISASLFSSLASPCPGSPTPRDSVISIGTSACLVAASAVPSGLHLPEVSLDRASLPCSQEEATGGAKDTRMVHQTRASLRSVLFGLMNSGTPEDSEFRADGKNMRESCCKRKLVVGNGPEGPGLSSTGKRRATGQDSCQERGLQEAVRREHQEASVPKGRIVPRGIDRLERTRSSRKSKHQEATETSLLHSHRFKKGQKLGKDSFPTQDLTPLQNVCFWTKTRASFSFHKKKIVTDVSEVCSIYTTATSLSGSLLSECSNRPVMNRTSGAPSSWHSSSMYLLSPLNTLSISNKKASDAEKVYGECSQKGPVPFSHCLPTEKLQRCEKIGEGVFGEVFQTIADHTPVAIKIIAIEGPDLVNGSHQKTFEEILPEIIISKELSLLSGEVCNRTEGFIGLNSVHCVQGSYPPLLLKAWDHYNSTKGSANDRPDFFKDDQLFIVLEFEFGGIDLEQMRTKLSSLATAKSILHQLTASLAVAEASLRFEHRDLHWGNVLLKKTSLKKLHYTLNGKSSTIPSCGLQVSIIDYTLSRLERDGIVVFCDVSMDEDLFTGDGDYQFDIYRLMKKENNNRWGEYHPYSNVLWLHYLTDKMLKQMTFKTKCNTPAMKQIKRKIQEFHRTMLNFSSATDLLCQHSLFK
# Test: TR-FRET Haspin assay
# Format: biochemical
# Settings: not given
# Excerpt: A synthetic codon-optimized human Haspin cDNA was made in vector pUC57 at GenScript Corporation (Piscataway, N.J.) to facilitate bacterial expression. This full-length Haspin gene was cloned into the pMALc2E vector (New England Biolabs, Ipswich, Mass.) using EcoR I and Sal I sites. Haspin was expressed and purified as an N-terminal MBP fusion protein from E. coli Rosetta™2(DE3)pLysS cells (Novagen, Madison, Wis.). A freshly transformed colony was used to initiate a small volume liquid culture in LB medium with 2 g/l glucose, 34 μg/ml chloramphenicol and 100 μg/ml ampicillin. This culture was used to inoculate a large volume of the same medium and grown until an absorbance at 600 nm of 0.5 was reached. Protein expression was induced by adding 0.3 mM isopropyl thiogalactoside and growth with shaking at room temperature for 14 hours. Affinity column chromatography was carried out using amylose resin following the manufacturer's instructions (New England Biolabs). The fusion protein was eluted in 50 mM Tris, pH 7.5, 200 mM NaCl, 10 mM maltose and dialyzed into 50 mM Tris, pH 7.5, 200 mM NaCl, 2 mM DTT and 50% glycerol. The purity and yield of intact fusion protein was determined by SDS-PAGE and Coomassie Blue staining, in comparison with known quantities of bovine serum albumin.
# This peptide carried biotin on the side chain of the C-terminal lysine. Recombinant full-length human histone H3 was from New England Biolabs. ATP and Staurosporine were purchased from Sigma-Aldrich (St Louis, Mo.). Rabbit monoclonal anti-Histone H3T3ph antibody (clone JY325) from Millipore (Billerica, Mass.) was directly labeled by PerkinElmer (Waltham, Mass.) with LANCE Eu W1024. For indirect detection, LANCE Eu W1024 labeled anti-rabbit IgG antibody was used (PerkinElmer). Streptavidin conjugated to SureLight-Allophycocyanin (PerkinElmer) was used as the acceptor fluorophore.
# A CRS CataLyst Express robotic arm (Thermo Fisher Scientific, Waltham, Mass.) and a Cybi-well 384 channel simultaneous pipettor (CyBio AG, Jena, Germany) were used to carry out the high throughput screening of a small molecule library. Kinase reactions were performed in 50 mM Tris, pH 7.5, 5 mM MgCl2, 1 mM DTT, 0.01% Brij-35 using Proxiplate 384 Plus white assay plates (PerkinElmer). […] The reaction was incubated for 10 minutes at room temperature. The reaction was terminated by addition of […] 50 mM EDTA, 2 nM Europium labeled anti-Histone H3T3ph antibody, 40 nM Streptavidin-APC. After a two hour incubation at room temperature, TR-FRET measurements were performed using a PHERAstar HTS microplate reader (BMG Labtech, Offenberg, Germany), and were expressed as ratios of acceptor fluorescence at 665 nm over donor fluorescence at 620 nm.
# Data were analyzed using GraphPad Prism Version 4 (GraphPad Software Inc, La Jolla, Calif.). No inhibitor (“MAX”) and Staurosporine inhibitor (“MIN”) controls were used to calculate Z′ values and signal to background ratios during the high throughput screen. […] Km concentrations were also determined by non-linear regression.
# To identify Haspin inhibitors by high throughput screening a homogeneous kinase assay based on time-resolved fluorescence resonance energy transfer (TR-FRET) was designed (Patnaik D., et al. J Biomol. Screen 13: 1025-1034, […].). This TR-FRET assay was utilized to screen a small molecule library of approximately 140,000 compounds. Primary hits were re-tested by TR-FRET assay using the peptide substrate and then revalidated by assaying the compounds in a radiometric assay using full-length Histone H3 as a protein substrate.
# IC50 values were determined for inhibition of Haspin kinase utilizing the TR-FRET assay described in Example 3.
row,Compound,pIC50
1,"COc1ccc2c(c1)[nH]c1c(C)nccc12 [LDN-97388, harmine, reference compound]",> 6.00

# Same assay, conditions: high throughput screen by TR-FRET; hits revalidated in radiometric assay and confirmed in cellular assay
row,Compound,Haspin kinase inhibitory activity (in words)
1,COc1ccc2c(c1)[nH]c1c(/C=C/c3ccccc3)nccc12 [LDN-57292],identified as a Haspin kinase inhibitors
2,"COc1ccc2c(c1)[nH]c1c(C)nccc12 [LDN-97388, harmine, reference compound]",identified as a Haspin kinase inhibitors
3,"harmol [LDN-21813, reference compound]",identified as a Haspin kinase inhibitors

# Same assay, conditions: inhibition of Haspin kinase, TR-FRET assay of Example 3; MBP-Haspin, H3(1-21)-biotin peptide 0.1 μM, ATP 200 μM; read-out: IC50
row,Compound,pIC50
1,Cc1nccc2c1[nH]c1cc(OCCCN)ccc12 [LDN-209931],> 6.00
2,Cc1nccc2c1[nH]c1cc(OCCCCN)ccc12 [LDN-209932],> 5.70
3,COc1ccc2c3ccnc(C)c3n(CCCCN)c2c1 [LDN-209953],> 6.70
4,COc1ccc2c3ccncc3n(CCCCN)c2c1 [LDN-209983],> 6.46
5,CCc1nccc2c3ccc(OC)cc3n(CCCCN)c12 [LDN-209984],> 6.70
6,COc1ccc2c3ccnc(C(C)C)c3n(CCCCN)c2c1 [LDN-209985],> 6.22
7,Cc1nccc2c3ccc(O)cc3n(CCCCN)c12 [LDN-209986],> 6.70
8,Cc1nccc2c3ccc(F)cc3n(CCCCN)c12 [LDN-209987],> 6.22
9,COc1cccc2c3ccnc(C)c3n(CCCCN)c12 [LDN-211893],> 6.52
10,COc1ccc2c(c1)c1ccnc(C)c1n2CCCCN [LDN-211894],> 5.52
11,COc1cccc2c1c1ccnc(C)c1n2CCCCN [LDN-211895],> 5.46
12,Cc1nccc2c3cc4c(cc3n(CCCCN)c12)OCO4 [LDN-211896],> 6.15
13,COc1ccc2c3ccnc(C)c3n(CCCCN)c2c1Cl [LDN-211897],> 5.92
14,COc1ccc2c3ccnc(C(F)(F)F)c3n(CCCCN)c2c1 [LDN-211898],> 6.82
15,Cc1nccc2c3ccc(NS(C)(=O)=O)cc3n(CCCCN)c12 [LDN-211899],> 6.00
16,CNCCCCn1c2cc(OC)ccc2c2ccnc(C)c21 [LDN-211900],> 6.40
17,COc1ccc2c3ccnc(C)c3n(CCCCN)c2c1 [LDN-211901],> 6.30
18,NCCCCn1c2cc(O)ccc2c2ccnc(C(F)(F)F)c21 [LDN-211998],> 6.52
19,"harmol [LDN-21813, reference compound]",> 5.82

# Same assay, conditions: read-out: IC50
row,Compound,pIC50
1,c1ccc2c(c1)[nH]c1cnccc12 [LDN-14063],< 5.00
2,COc1ccc2c(c1)[nH]c1c(/C=C/c3ccccc3)nccc12 [LDN-57292],> 5.70
3,COc1ccc2c(c1)[nH]c1ncccc12 [LDN-209919],< 4.00
4,Cc1nccc2c1[nH]c1cc(OCCCCNC(=O)OC(C)(C)C)ccc12 [LDN-209920],< 5.00
5,Cc1nccc2c1[nH]c1cc(OCCCNC(=O)OC(C)(C)C)ccc12 [LDN-209921],< 5.00
6,COc1ccc2c(c1)[nH]c1ccccc12 [LDN-209934],< 6.00
7,COc1ccc2c(c1)[nH]c1c(-c3ccccc3)nccc12 [LDN-209952],< 5.30
8,COc1ccc2c3ccnc(C)c3n(CCCC(N)c3ccccc3)c2c1 (centres unmarked) [LDN-211902],> 6.70
9,Cc1nccc2c3ccc(OC(C)(C)C)cc3n(CCCCN)c12 [LDN-211903],> 5.30
